Where two headings read alike, the source gives them in different places.
Target: T1, human CYP4Z1 (Homo sapiens, UniProt Q86W10)
T1 sequence (Q86W10 1-505): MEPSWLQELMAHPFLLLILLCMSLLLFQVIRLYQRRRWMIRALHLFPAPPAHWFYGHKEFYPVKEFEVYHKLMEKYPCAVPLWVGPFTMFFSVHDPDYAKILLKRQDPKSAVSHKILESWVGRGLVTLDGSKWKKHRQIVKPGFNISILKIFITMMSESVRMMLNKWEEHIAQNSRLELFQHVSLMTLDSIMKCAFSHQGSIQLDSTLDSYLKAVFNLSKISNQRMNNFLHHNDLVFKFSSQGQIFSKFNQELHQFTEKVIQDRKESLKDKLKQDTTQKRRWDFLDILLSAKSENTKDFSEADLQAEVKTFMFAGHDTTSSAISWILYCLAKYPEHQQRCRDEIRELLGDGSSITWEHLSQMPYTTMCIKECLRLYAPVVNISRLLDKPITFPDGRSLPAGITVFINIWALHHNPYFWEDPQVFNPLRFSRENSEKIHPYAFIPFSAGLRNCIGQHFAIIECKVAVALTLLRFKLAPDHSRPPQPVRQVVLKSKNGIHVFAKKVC
Test: whole-cell biotransformation (substrate conversion) assay with fission yeast strains expressing CYP4Z1
Conditions: for metabolite formation / metabolism by human CYP4Z1: fission yeast strains AZ1 and AZ3, 1 mM substrate, 24 h at 30°C, HPLC (steroids, vitamin D, ebastine) or GC-MS (fatty acids)
Experimental: Possible substrates of human CYP4Z1 were tested by incubating the fission yeast strains AZ1 and AZ3 as well as the control strains NCYC2036 and CAD 62 with 1 mM substrate. […] Approximately 2*10^8 cells/mL were used per assay. Cells were grown in EMM medium containing 100 g/L glucose as well as the required supplements (leucine for AZ1 and CAD 62). Incubation was carried out either in 96 well microtiter plates or in 250 mL Erlenmeyer flasks with a cellulose stopper at a shaking velocity of 150 rpm for 24 h at 30°C.
Samples containing steroids as possible substrates were extracted with ethylacetate, evaporated and analyzed via HPLC (Alliance, Waters, USA) using a RP-18 column (Licrosphere 100, 5µM, Merck, Darmstadt) or a RP-8 column (Licrosphere 100, 5µM, Merck, Darmstadt). The column temperature was kept constant at 40°C. The mobile phase used for each sample is outlined in Suppl. Table. 1. When available, positive control reactions were carried out using strains expressing a P450 that is known to metabolize the respective substrate.
Fatty acid conversions were analyzed via GC-MS as previously described. Fatty acid extraction from S.pombe cells was performed using the Bligh and Dyer method.. Extracted samples were then evaporated to dryness, dissolved in a mixture of 500 µl methanol/toluene/sulphuric acid (50:50:2 V/V) and incubated at 55 °C overnight. 400µl of a 0.5 M […], 2 M KCl solution were added to the samples which were then centrifuged at RT, transferred to a GC vial and derivatised with 25 µl N-Methyl-N-(trimethylsilyl)trifluoroacetamide (37 °C for 1 hour). Fatty acid analysis was performed on an Agilent 6890N gas chromatograph coupled to an Agilent 5973N mass selective detector and equipped with a non-polar J&W DB-5HT capillary column, as described before.

main hydroxylation position (MS fragmentation analysis) | other hydroxylated fatty acids detected besides the main product | SMILES | metabolite formation / metabolism by human CYP4Z1 | main hydroxylation position (MS fragmentation analysis) (CYP4Z1 whole-cell biotransformation, GC-MS, main product) | other hydroxylated fatty acids detected besides the main product (CYP4Z1 whole-cell biotransformation, GC-MS, minor products)
 |  | C=C1CC[C@H](O)C/C1=C/C=C1\CCC[C@]2(C)[C@@H]([C@H](C)CCCC(C)C)CC[C@@H]12 [vitamin D3] | not metabolized |  | 
predominantly ω-4-hydroxylated | ω-2-, ω-3-, ω-5-hydroxylated | CCCCCCCCCCCC(=O)O [lauric acid] |  |  | 
 |  | CCCCCCCCCCCCCC(=O)O [myristic acid] | able to hydroxylate | mainly hydroxylated at position ω-2 | ω-3-, ω-4-, ω-5-hydroxlated

Source: patent EP2177604A1, “Methods for identifying potential CYP4 metabolites, inhibitors or prodrugs” (PomBio Tech GmbH, priority 2008, dated 2010)
